#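 Grown in 96-well plates, cells were treated for 48 hours with each compound at five concentrations. Insufficient inhibition: endpoint recorded as highest concentration tested. Here, GI50 denotes the concentration required for 50% inhibition of growth.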 Calls of active or inactive are those of the source. Rule as the data show it: active = GI50 up to about 1.1 µM and inactive = higher. *1 amine or outer side, *2 acyl side, *3 side chain or, on linkers, in order; H or OH if unused. Where a SMILES comes first, the peptide text is derived from it. The star is where a group is joined. γGlu = O=C(O)[CH](CCC(=O)[*:2])N[*:1]; NHOH = ON*
# Key:
# Assay in all cases: NCI tumour cell line growth inhibition, 48 h
# [1] = system: HT-29
# [2] = system: 786-0
# [3] = system: OVCAR-5
# [4] = system: HCT-15
# [5] = system: SK-MEL-28
# [6] = system: HCC 2998
# [7] = system: OVCAR-8
# [8] = system: UACC-62
# [9] = system: NCI-H23
# [10] = system: OVCAR-3
# [11] = system: KM12
# [12] = system: UO-31
# [13] = system: Malme-3M
# [14] = system: COLO 205
# [15] = system: LOX IMVI
# [16] = system: SNB-19
# [17] = system: MDA-MB-435
# [18] = system: BT-549
# [19] = system: PC-3
# [20] = system: Hs-578T
SMILES,GI50 [1],GI50 [2],GI50 [3],GI50 [4] [µM],GI50 [5],GI50 [6],GI50 [7],GI50 [8],GI50 [9],GI50 [10],GI50 [11],GI50 [12],GI50 [13],GI50 [14],GI50 [15],GI50 [16],GI50 [17],GI50 [18],GI50 [19],GI50 [20]
O=C(NC(Cc1ccccc1)C(=O)CCl)OCc1ccccc1 (stereo unspecified),16.6 µM (inactive),3.83 µM (inactive),11.8 µM (inactive),5,12.1 µM (inactive),18.1 µM (inactive),4.38 µM (inactive),9.2 µM (inactive),9.2 µM (inactive),5.24 µM (inactive),10 µM (inactive),12.9 µM (inactive),11.4 µM (inactive),7.16 µM (inactive),1.76 µM (inactive),12.3 µM (inactive),,,,
C[B@@-]1(c2ccc(C(F)(F)F)cc2)N[C@@H](Cc2ccccc2)C(=O)O1,> 100 µM (inactive),> 100 µM (inactive),> 100 µM (inactive),> 100,> 100 µM (inactive),> 100 µM (inactive),> 100 µM (inactive),> 100 µM (inactive),> 100 µM (inactive),> 100 µM (inactive),,88.1 µM (inactive),> 100 µM (inactive),> 100 µM (inactive),> 100 µM (inactive),> 100 µM (inactive),> 100 µM (inactive),> 100 µM (inactive),> 100 µM (inactive),
O=C1CCC2(c3ccc(Cl)cc3)Nc3ccccc3N12 (stereo unspecified),> 100 µM (inactive),> 100 µM (inactive),> 100 µM (inactive),97.1,> 100 µM (inactive),> 100 µM (inactive),> 100 µM (inactive),,42.6 µM (inactive),,> 100 µM (inactive),49.7 µM (inactive),> 100 µM (inactive),> 100 µM (inactive),> 100 µM (inactive),> 100 µM (inactive),,,,
CCOC(C)O[C@H]1C(=O)OCC1(C)C (stereo partly specified),> 100 µM (inactive),> 100 µM (inactive),> 100 µM (inactive),> 100,> 100 µM (inactive),> 100 µM (inactive),> 100 µM (inactive),> 100 µM (inactive),> 100 µM (inactive),> 100 µM (inactive),> 100 µM (inactive),> 100 µM (inactive),> 100 µM (inactive),> 100 µM (inactive),> 100 µM (inactive),> 100 µM (inactive),> 100 µM (inactive),,> 100 µM (inactive),> 100 µM (inactive)
Cc1ccc(C(=O)N/N=C(\N=N\c2cccc(C)c2)c2ccc(N(CCC#N)CCC#N)cc2C)cc1,34.4 µM (inactive),,> 100 µM (inactive),> 100,13.1 µM (inactive),> 100 µM (inactive),43.3 µM (inactive),57.1 µM (inactive),> 100 µM (inactive),78.9 µM (inactive),31.8 µM (inactive),> 100 µM (inactive),,> 100 µM (inactive),88.9 µM (inactive),> 100 µM (inactive),26.4 µM (inactive),,58.3 µM (inactive),51.9 µM (inactive)
C[C@@H]1OC(=O)C[C@H]2CC(=O)N(CCC3CN(S(=O)(=O)C(F)(F)F)c4ccccc43)C[C@@H]21 (stereo partly specified),> 100 µM (inactive),> 100 µM (inactive),> 100 µM (inactive),> 100,> 100 µM (inactive),> 100 µM (inactive),,> 100 µM (inactive),> 100 µM (inactive),> 100 µM (inactive),> 100 µM (inactive),> 100 µM (inactive),82.4 µM (inactive),> 100 µM (inactive),,> 100 µM (inactive),> 100 µM (inactive),,> 100 µM (inactive),85.1 µM (inactive)
C=C1CCN2CC[C@@H](OC(=O)/C(C)=C\C)[C@@H]12,66.2 µM (inactive),> 100 µM (inactive),> 100 µM (inactive),> 100,> 100 µM (inactive),> 100 µM (inactive),> 100 µM (inactive),> 100 µM (inactive),> 100 µM (inactive),> 100 µM (inactive),> 100 µM (inactive),> 100 µM (inactive),> 100 µM (inactive),> 100 µM (inactive),> 100 µM (inactive),> 100 µM (inactive),> 100 µM (inactive),,> 100 µM (inactive),> 100 µM (inactive)
O=P1(O)C=CC2(CCCC2)O1,> 100 µM (inactive),> 100 µM (inactive),> 100 µM (inactive),> 100,> 100 µM (inactive),> 100 µM (inactive),> 100 µM (inactive),> 100 µM (inactive),> 100 µM (inactive),> 100 µM (inactive),> 100 µM (inactive),,> 100 µM (inactive),> 100 µM (inactive),> 100 µM (inactive),> 100 µM (inactive),> 100 µM (inactive),,> 100 µM (inactive),
N#CCC(=O)N/N=C1/C(=O)N(c2cc(Cl)ccc2Cl)C(=O)C(=O)C1c1nc2ccccc2s1 (stereo unspecified),> 100 µM (inactive),> 100 µM (inactive),> 100 µM (inactive),> 100,> 100 µM (inactive),> 100 µM (inactive),81.5 µM (inactive),29.8 µM (inactive),> 100 µM (inactive),54.6 µM (inactive),> 100 µM (inactive),36.9 µM (inactive),> 100 µM (inactive),> 100 µM (inactive),64 µM (inactive),64.3 µM (inactive),,,,
C/C(CCN(C)C)=N\OC(=O)c1ccccc1,> 100 µM (inactive),> 100 µM (inactive),> 100 µM (inactive),,> 100 µM (inactive),> 100 µM (inactive),> 100 µM (inactive),> 100 µM (inactive),> 100 µM (inactive),> 100 µM (inactive),> 100 µM (inactive),> 100 µM (inactive),> 100 µM (inactive),> 100 µM (inactive),> 100 µM (inactive),> 100 µM (inactive),,,,
COc1cccc(C2SCc3nc4ccccc4n32)c1 (stereo unspecified),41.9 µM (inactive),> 100 µM (inactive),58.9 µM (inactive),38.8,81.3 µM (inactive),45.6 µM (inactive),57.9 µM (inactive),49.9 µM (inactive),35 µM (inactive),35.2 µM (inactive),56.4 µM (inactive),22.1 µM (inactive),54.6 µM (inactive),> 100 µM (inactive),54.6 µM (inactive),> 100 µM (inactive),,,,
COc1ccc(C2C(Cl)C(=O)N2NC(=O)Cc2ccccc2)cc1OC (stereo unspecified),> 100 µM (inactive),> 100 µM (inactive),> 100 µM (inactive),> 100,> 100 µM (inactive),> 100 µM (inactive),> 100 µM (inactive),> 100 µM (inactive),> 100 µM (inactive),> 100 µM (inactive),> 100 µM (inactive),> 100 µM (inactive),> 100 µM (inactive),> 100 µM (inactive),> 100 µM (inactive),> 100 µM (inactive),,,,
CCCCCCCCCC[C@@H](O)[C@@H]1CC[C@@H]([C@@H]2CC[C@@H]([C@@H](O)CCCCCCCCCCC(O)CC3=CC(C)OC3=O)O2)O1 (stereo partly specified),> 10 µM (inactive),,0.128 µM (active),5.89,> 10 µM (inactive),4.84 µM (inactive),4.43 µM (inactive),3.79 µM (inactive),,,3.53 µM (inactive),0.562 µM (active),1.81 µM (inactive),> 10 µM (inactive),1.05 µM (active),,,,5.04 µM (inactive),> 10 µM (inactive)
Cc1nc2c(=O)[nH]c(=O)n(C)c2[nH]c1=O.c1ccncc1,> 100 µM (inactive),> 100 µM (inactive),> 100 µM (inactive),> 100,> 100 µM (inactive),> 100 µM (inactive),> 100 µM (inactive),> 100 µM (inactive),> 100 µM (inactive),> 100 µM (inactive),> 100 µM (inactive),> 100 µM (inactive),> 100 µM (inactive),> 100 µM (inactive),> 100 µM (inactive),> 100 µM (inactive),,,,
NC(CCC(=O)NC(CCC(=O)NO)C(=O)NCC(=O)O)C(=O)O (stereo unspecified) (γGlu-Glu(NHOH)-Gly-OH; configuration not given here),> 100 µM (inactive),> 100 µM (inactive),> 100 µM (inactive),> 100,> 100 µM (inactive),> 100 µM (inactive),> 100 µM (inactive),> 100 µM (inactive),> 100 µM (inactive),> 100 µM (inactive),> 100 µM (inactive),> 100 µM (inactive),,> 100 µM (inactive),> 100 µM (inactive),> 100 µM (inactive),> 100 µM (inactive),> 100 µM (inactive),> 100 µM (inactive),
N#CC(C#N)=Cn1c(=S)[nH]c2ccccc21,> 100 µM (inactive),> 100 µM (inactive),> 100 µM (inactive),,> 100 µM (inactive),> 100 µM (inactive),> 100 µM (inactive),> 100 µM (inactive),> 100 µM (inactive),> 100 µM (inactive),> 100 µM (inactive),> 100 µM (inactive),> 100 µM (inactive),> 100 µM (inactive),> 100 µM (inactive),> 100 µM (inactive),> 100 µM (inactive),,> 100 µM (inactive),> 100 µM (inactive)
COc1cc(O)c2c(=O)c(O)c(-c3ccc(O)c(OC)c3)oc2c1 [RHAMNAZIN],44.2 µM (inactive),3.44 µM (inactive),> 100 µM (inactive),> 19.6,,7.6 µM (inactive),3.52 µM (inactive),,> 26.5 µM (inactive),2.52 µM (inactive),3.47 µM (inactive),,> 100 µM (inactive),33.7 µM (inactive),3.19 µM (inactive),3.83 µM (inactive),,2 µM (inactive),11 µM (inactive),

# From ChEMBL document CHEMBL1201862, “PubChem BioAssay data set” (2004)
